We go through 33 molecules from patent US12209081B2 (Katholieke Universiteit Leuven, priority 2020, dated 2025).

For the experiment, the target named is mouse TRPM3α2 (mTRPM3) ion channel (Mus musculus (Mouse), UniProt J9SQF3). Nature of the experiment: TRPM3 ion channel driven Ca2+ uptake, Fluo-4 AM assay, mTRPM3alpha2 overexpressing flip-in HEK293 cells stimulated with pregnenolone sulfate. The format is cell-based. On the procedure: Part B Monitoring the TRPM3 Ion Channel Driven Ca^2+ Uptake.
mouse TRPM3α2 (mTRPM3) ion channel, sequence (J9SQF3 other isoform, or with tags, fused parts or gaps): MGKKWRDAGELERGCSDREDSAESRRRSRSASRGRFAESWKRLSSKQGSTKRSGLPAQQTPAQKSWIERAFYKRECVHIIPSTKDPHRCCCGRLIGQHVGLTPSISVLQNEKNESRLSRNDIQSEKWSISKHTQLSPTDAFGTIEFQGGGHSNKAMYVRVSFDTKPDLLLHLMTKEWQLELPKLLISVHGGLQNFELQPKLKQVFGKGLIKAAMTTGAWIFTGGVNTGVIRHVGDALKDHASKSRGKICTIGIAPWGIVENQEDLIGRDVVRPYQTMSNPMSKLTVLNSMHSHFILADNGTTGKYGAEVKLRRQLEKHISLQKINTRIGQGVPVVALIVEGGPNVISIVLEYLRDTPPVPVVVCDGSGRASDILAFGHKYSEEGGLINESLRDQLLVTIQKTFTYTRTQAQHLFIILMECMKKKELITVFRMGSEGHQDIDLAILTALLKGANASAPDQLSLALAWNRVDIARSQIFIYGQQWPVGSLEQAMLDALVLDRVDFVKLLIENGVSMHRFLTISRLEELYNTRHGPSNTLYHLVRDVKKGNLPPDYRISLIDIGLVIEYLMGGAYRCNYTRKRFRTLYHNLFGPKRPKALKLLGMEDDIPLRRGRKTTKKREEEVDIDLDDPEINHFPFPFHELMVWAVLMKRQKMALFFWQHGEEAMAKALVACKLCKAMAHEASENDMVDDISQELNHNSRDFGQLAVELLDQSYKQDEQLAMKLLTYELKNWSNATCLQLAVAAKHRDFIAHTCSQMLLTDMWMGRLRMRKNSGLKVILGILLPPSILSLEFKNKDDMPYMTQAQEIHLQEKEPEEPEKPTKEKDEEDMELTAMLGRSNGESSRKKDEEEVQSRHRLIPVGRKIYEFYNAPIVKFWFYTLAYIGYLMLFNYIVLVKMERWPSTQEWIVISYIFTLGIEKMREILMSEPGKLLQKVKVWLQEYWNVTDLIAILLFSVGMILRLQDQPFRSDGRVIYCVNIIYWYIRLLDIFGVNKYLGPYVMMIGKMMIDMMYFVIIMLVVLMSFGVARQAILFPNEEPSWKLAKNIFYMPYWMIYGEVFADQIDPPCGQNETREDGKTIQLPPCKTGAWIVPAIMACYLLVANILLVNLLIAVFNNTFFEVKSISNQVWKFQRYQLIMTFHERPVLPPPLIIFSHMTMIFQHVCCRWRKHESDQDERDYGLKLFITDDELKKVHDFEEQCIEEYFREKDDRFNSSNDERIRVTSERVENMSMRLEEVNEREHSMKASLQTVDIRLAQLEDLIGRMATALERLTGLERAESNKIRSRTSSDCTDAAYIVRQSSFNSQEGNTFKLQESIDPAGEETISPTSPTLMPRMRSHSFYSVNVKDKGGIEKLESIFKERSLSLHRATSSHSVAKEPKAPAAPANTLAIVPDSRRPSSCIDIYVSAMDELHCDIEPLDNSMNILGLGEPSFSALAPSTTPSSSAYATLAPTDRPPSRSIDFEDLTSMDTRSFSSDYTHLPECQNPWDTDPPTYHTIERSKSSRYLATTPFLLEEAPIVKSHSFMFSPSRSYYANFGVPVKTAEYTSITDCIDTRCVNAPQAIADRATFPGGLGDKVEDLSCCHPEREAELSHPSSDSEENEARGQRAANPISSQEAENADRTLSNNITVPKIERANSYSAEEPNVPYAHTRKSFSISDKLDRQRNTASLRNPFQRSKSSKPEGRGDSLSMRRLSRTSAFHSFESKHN
In order to monitor the inhibition of the mouse TRPM3α2 (mTRPM3) ion channel by the compounds of the invention, a cellular system making use of an mTRPM3alpha2 or hTRPM3 overexpressing cell line (flip-in HEK293) was used. The TRPM3 channel was stimulated/opened with Pregnenolone sulfate (PS) (50 μM) which results in Ca^2+ influx.
For mTRPM3, the intracellular Ca^2+ was measured with a Calcium responsive dye. Fluor-4 AM ester (Invitrogen). Cells were cultured until a confluence of 80-90%, washed with Versene (Invitrogen) and detached from the surface by a short incubation with 0.05% Trypsin (Invitrogen). The trypsination process was stopped by the addition of complete cell culture medium (DMEM, glutamax, 10% FCS,NEAA,Pen-Strep). Cells were collected and resuspended in Krebs buffer without Calcium at RT.
Prior the cell seeding (±2000 cells/well into a black, 384 well plate (Greiner)) the diluted compound was added in the assay plate, together with the PS dissolved in Krebs buffer containing Calcium. […] Directly after cell addition the plates were read on an Envision fluorescence reader (Perkin Elmer) by an Excitation of 485 nm and emission at 535 nm.
Channel inhibition was calculated compared to a non-PS stimulated control versus a condition stimulated with PS (50 μM) with vehicle. The ability of the compounds of the invention to inhibit this activity was determined as: Percentage inhibition=[1-((RFU determined for sample with test compound present—RFU determined for sample with positive control inhibitor) divided by (RFU determined in the presence of vehicle—RFU determined for sample with positive control inhibitor))]*100.

Where [1] appears, read: PS (50 μM) stimulated, cpd 001-199.
[2] abbreviates: PS (50 μM) stimulated, cpds. 400-499.
[3] abbreviates: PS (50 μM) stimulated, cpds. 667-751.
The mark [4] stands for this setting: PS (50 μM) stimulated, cpds. 500-599.
The mark [5] stands for this setting: PS (50 μM) stimulated, cpds. 608-666.

Bounds are passed on as bounds.

For orientation: IC50 means the midpoint of a concentration-inhibition curve. Under setting [1], `Cc1oc2ccc(OCc3cccnc3C(F)(F)F)cc2c1C(=O)NC1(CN)CCC1` [compound 136, N-(1-(aminomethyl)cyclobutyl)-2-methyl-5-((2-(trifluoromethyl)pyridin-3-yl)methoxy)benzofuran-3-carboxamide] yielded a half-maximal inhibitory concentration (IC50) of less than 1 µM.

Regarding `COc1ncccc1COc1ccc2oc(C)c(C(=O)N[C@@H](C)CO)c2c1` [compound 496, (S)-N-(1-hydroxypropan-2-yl)-5-((2-methoxypyridin-3-yl)methoxy)-2-methylbenzofuran-3-carboxamide], the half-inhibitory concentration (IC50) under setting [2] was less than 1 µM.

For `Cc1oc2ccc(OCc3ccncn3)cc2c1C(=O)NC(C)(CO)CO` [compound 429, N-(1,3-dihydroxy-2-methylpropan-2-yl)-2-methyl-5-(pyrimidin-4-ylmethoxy)benzofuran-3-carboxamide], the IC50 under setting [2] was less than 1 µM.

Under “PS 50 μM, cpds 200-299”, `Cc1ncc(COc2ccc3oc(C)c(C(=O)N[C@@H](CO)C(=O)N(C)C)c3c2)s1` [compound 278, (S)-N-(1-(dimethylamino)-3-hydroxy-1-oxopropan-2-yl)-2-methyl-5-((2-methylthiazol-5-yl)methoxy)benzofuran-3-carboxamide] came in with an IC50 of less than 1 µM.

As to `Cc1oc2ccc(OCc3cccnc3O)cc2c1C(=O)N[C@@H](C)CO` [compound 494, (S)-N-(1-hydroxypropan-2-yl)-5-((2-hydroxypyridin-3-yl)methoxy)-2-methylbenzofuran-3-carboxamide], the IC50 under setting [2] is less than 1 µM.

`Cc1oc2ccc(OCc3cccnc3O)cc2c1C(=O)N[C@H](C)CO` [compound 495, (R)-N-(1-hydroxypropan-2-yl)-5-((2-hydroxypyridin-3-yl)methoxy)-2-methylbenzofuran-3-carboxamide] yielded an IC50 under setting [2] of less than 1 µM.

Take `Cc1oc2ccc(OCc3ccccn3)cc2c1C(=O)NC1(C(N)=O)CCC1` [compound 472, N-(1-carbamoylcyclobutyl)-2-methyl-5-(pyridin-2-ylmethoxy)benzofuran-3-carboxamide]: under setting [2], the IC50 is less than 1 µM.

Under setting [3], `Cc1ncc(COc2ccc3oc(C)c(C(=O)NC4CCOCC4(F)F)c3c2)s1` (single isomer, unassigned) [cpd 724-En 1] displayed an IC50 of less than 1 µM.

The molecule `Cc1oc2ccc(OCc3cccnc3C(F)F)cc2c1C(=O)NC1(CO)COC1` [compound 341, 5-((2-(difluoromethyl)pyridin-3-yl)methoxy)-N-(3-(hydroxymethyl)oxetan-3-yl)-2-methylbenzofuran-3-carboxamide] yielded a half-maximal inhibitory concentration (IC50) (PS 50 μM, cpds 300-399) of less than 1 µM.

Regarding `Cc1oc2ccc(OCc3cccnc3N3CCC3)cc2c1C(=O)N[C@@H](CO)C(N)=O` [compound 706, (S)-N-(1-amino-3-hydroxy-1-oxopropan-2-yl)-5-((2-(azetidin-1-yl)pyridin-3-yl)methoxy)-2-methylbenzofuran-3-carboxamide], the IC50 under setting [3] is less than 1 µM.

Under setting [2], `COc1ncccc1COc1ccc2oc(C)c(C(=O)NC(C)(C)C(N)=O)c2c1` [compound 444, N-(1-amino-2-methyl-1-oxopropan-2-yl)-5-((2-methoxypyridin-3-yl)methoxy)-2-methylbenzofuran-3-carboxamide] displayed an IC50 of less than 1 µM.

Molecule `NC(=O)[C@H](CO)NC(=O)c1c(C2CC2)oc2ccc(OCc3ccccn3)cc12` [compound 747, (S)-N-(1-Amino-3-hydroxy-1-oxopropan-2-yl)-2-cyclopropyl-5-(pyridin-2-ylmethoxy)benzofuran-3-carboxamide] displayed an IC50 under setting [3] of less than 1 µM.

Consider `Cc1ncsc1COc1cc2c(C(=O)NC3(C(N)=O)COC3)c(C)oc2cc1F` [compound 587, N-(3-carbamoyloxetan-3-yl)-6-fluoro-2-methyl-5-((4-methylthiazol-5-yl)methoxy)benzofuran-3-carboxamide], for which the half-inhibitory concentration (IC50) under setting [4] was less than 1 µM.

In the case of `Cc1nc(COc2ccc3oc(C)c(C(=O)N[C@@H](CO)C(N)=O)c3c2)c(C)s1` [compound 299, (S)-N-(1-amino-3-hydroxy-1-oxopropan-2-yl)-5-((2,5-dimethylthiazol-4-yl)methoxy)-2-methylbenzofuran-3-carboxamide], for the setting “PS 50 μM, cpds 200-299”, the concentration for half-maximal inhibition (IC50) is less than 1 µM.

`Cc1oc2ccc(OCc3nc4ccccc4s3)cc2c1C(=O)O` [compound 017, 5-(benzo[d]thiazol-2-ylmethoxy)-2-methylbenzofuran-3-carboxylic acid]: the IC50 under setting [1] was more than 20 µM.

In turn, `Cc1oc2ccc(OCc3ccnn3C)cc2c1C(=O)NC1CNCC1(F)F` (single isomer, unassigned) [cpd 639-En 1] registered an IC50 under setting [5] of less than 1 µM.

For `Cc1ncsc1COc1ccc2oc(C)c(C(=O)NC3(CO)CCC3)c2c1` [compound 107, N-(1-(hydroxymethyl)cyclobutyl)-2-methyl-5-((4-methylthiazol-5-yl)methoxy)benzofuran-3-carboxamide], the IC50 under setting [1] is less than 1 µM.

On to `Cc1ncsc1COc1cc2c(C(=O)NC3(CO)COC3)c(C)oc2cc1F` [compound 362, 6-fluoro-N-(3-(hydroxymethyl)oxetan-3-yl)-2-methyl-5-((4-methylthiazol-5-yl)methoxy)benzofuran-3-carboxamide], for which the IC50 (PS 50 μM, cpds 300-399) is less than 1 µM.

In turn, `COc1cc(COc2ccc3oc(C)c(C(=O)NC4(CO)CCOCC4)c3c2)ccn1` [compound 629, N-(4-(hydroxymethyl)tetrahydro-2H-pyran-4-yl)-5-((2-methoxypyridin-4-yl)methoxy)-2-methylbenzofuran-3-carboxamide] yielded an IC50 under setting [5] of less than 1 µM.

Regarding `Cc1oc2ccc(OCc3cccnc3Cl)cc2c1C(=O)NC1CCNCC1(F)F` (stereo not drawn) [compound 067, 5-((2-chloropyridin-3-yl)methoxy)-N-(3,3-difluoropiperidin-4-yl)-2-methylbenzofuran-3-carboxamide], the IC50 under setting [1] is less than 1 µM.

Take `O=C(NC1CCNCC1(F)F)c1c(C2CC2)oc2ccc(OCc3cccnc3C(F)(F)F)cc12` (single isomer, unassigned) [cpd 313-En 1]: the IC50 (PS 50 μM, cpds 300-399) is less than 1 µM.

As for `Cc1oc2ccc(OCc3ccn(C)n3)cc2c1C(=O)N[C@@H](CO)C(N)=O` [compound 686, (S)-N-(1-Amino-3-hydroxy-1-oxopropan-2-yl)-2-methyl-5-((1-methyl-1H-pyrazol-3-yl)methoxy)benzofuran-3-carboxamide], the IC50 under setting [3] is less than 1 µM.

As to `CNC(=O)C1(NC(=O)c2c(C)oc3ccc(OCc4ccccn4)cc23)CCC1` [compound 320, 2-methyl-N-(1-(methylcarbamoyl)cyclobutyl)-5-(pyridin-2-ylmethoxy)benzofuran-3-carboxamide], under “PS 50 μM, cpds 300-399”, the IC50 was less than 1 µM.

For `Cc1ncc(COc2ccc3oc(C)c(C(=O)N[C@@H](CO)C(N)=O)c3c2)o1` [compound 283, (S)-N-(1-amino-3-hydroxy-1-oxopropan-2-yl)-2-methyl-5-((2-methyloxazol-5-yl)methoxy)benzofuran-3-carboxamide], the half-maximal inhibitory concentration (IC50) (PS 50 μM, cpds 200-299) was less than 1 µM.

`Cc1oc2ccc(OCC3CCN(C(=O)OC(C)(C)C)C3)cc2c1C(=O)O` (stereo not drawn) [compound 019, 5-((1-(tert-butoxycarbonyl)pyrrolidin-3-yl)methoxy)-2-methylbenzofuran-3-carboxylic acid] registered an IC50 under setting [1] of more than 20 µM.

Turning to `Cc1oc2ccc(OCc3cccnc3OC(F)F)cc2c1C(=O)NC1CCNCC1(F)F` (single isomer, unassigned) [cpd 338-En 1], the IC50 (PS 50 μM, cpds 300-399) was less than 1 µM.

With `Cc1ncc(COc2ccc3oc(C)c(C(=O)NCC4(F)COC4)c3c2)s1` [compound 384, N-((3-fluorooxetan-3-yl)methyl)-2-methyl-5-((2-methylthiazol-5-yl)methoxy)benzofuran-3-carboxamide], for the setting “PS 50 μM, cpds 300-399”, the IC50 was less than 1 µM.

In turn, `Cc1ncsc1COc1ccc2oc(C)c(C(=O)N[C@H](C(N)=O)[C@@H](C)O)c2c1` [compound 378, N-((2S,3R)-1-amino-3-hydroxy-1-oxobutan-2-yl)-2-methyl-5-((4-methylthiazol-5-yl)methoxy)benzofuran-3-carboxamide] gave an IC50 (PS 50 μM, cpds 300-399) of less than 1 µM.

Molecule `Cc1ncsc1COc1ccc2oc(C)c(C(=O)NC3CCNCC3(F)F)c2c1` (stereo not drawn) [compound 056, N-(3,3-difluoropiperidin-4-yl)-2-methyl-5-((4-methylthiazol-5-yl)methoxy)benzofuran-3-carboxamide] had a 50% inhibitory concentration (IC50) under setting [1] of less than 1 µM.

Molecule `Cc1oc2ccc(OCc3cccnc3O)cc2c1C(=O)NC1(C(N)=O)CCC1` [compound 473, N-(1-carbamoylcyclobutyl)-5-((2-hydroxypyridin-3-yl)methoxy)-2-methylbenzofuran-3-carboxamide] returned an IC50 under setting [2] of less than 1 µM.

The molecule `Cc1oc2ccc(OCc3cccnc3C(F)F)cc2c1C(=O)NC1(C(N)=O)COC1` [compound 584, N-(3-carbamoyloxetan-3-yl)-5-((2-(difluoromethyl)pyridin-3-yl)methoxy)-2-methylbenzofuran-3-carboxamide] returned an IC50 under setting [4] of less than 1 µM.

As for `Cc1ncsc1COc1ccc2oc(C)c(C(=O)NC3CNCCC3(F)F)c2c1` (single isomer, unassigned) [cpd 103-En 1], the IC50 under setting [1] was less than 1 µM.

In turn, `Cc1ncc(COc2ccc3oc(C)c(C(=O)NC4(CO)CC4)c3c2)s1` [compound 418, N-(1-(hydroxymethyl)cyclopropyl)-2-methyl-5-((2-methylthiazol-5-yl)methoxy)benzofuran-3-carboxamide] displayed an IC50 under setting [2] of less than 1 µM.
